This passage reports Effect results from ChEMBL document CHEMBL1142667, “Modulation of MRP-1-mediated multidrug resistance by indomethacin analogues” (J Med Chem, 2005).

Calls of active or inactive are those of the source. The rule behind the calls is not given here.

For the first assay, the system named is T98G. Nature of the assay: Effect of compound (10 uM) on doxorubicin-induced cytotoxicity towards T98G cell line expressing multidrug resistance associated protein 1 (MRP-1); Active. In kind it is functional, cell-based. The note with it: Homo sapiens.
Turning to `COc1ccc2c(c1)c(CC(=O)O)c(C)n2C(=O)c1ccc(N(C)C)cc1`, the Effect result was “Active”. Same read-out and setting: in the case of `O=C(c1ccc(-c2ccccc2)cc1)n1c2c(c3cc(S(=O)(=O)O)ccc31)CSCC2` it was “Active”. On the same count and under the same terms, in the case of `COc1ccc2c(c1)c(CC(=O)O)c(C)n2C(=O)c1ccc(F)cc1` it was “Active”; in that of `Cc1c(Cc2ccc(O)cc2)c2cc(S(=O)(=O)O)ccc2n1C(=O)c1ccc(Cl)cc1`, “Active”; in that of `O=C(c1ccccc1)N1CCc2c(c3cc(S(=O)(=O)O)ccc3n2C(=O)c2ccc(-c3ccccc3)cc2)C1`, “Active”. On to `COc1ccc2c(c1)c(CCCC(=O)O)c(C)n2C(=O)c1ccccn1`, for which the Effect entry was “Active”. Consider `COc1ccc2c(c1)c(CC(=O)O)c(C)n2C(=O)c1cccs1`, for which the Effect result is “Active”. For the molecule `Cc1c(CCCC(=O)O)c2cc(C(=O)O)ccc2n1C(=O)c1ccc(Cl)cc1`, the Effect entry was “Active”. Still for that read-out and setting: the same measure for `CCOC(=O)CCCc1c(C)n(C(=O)c2ccc(N(C)C)cc2)c2ccc(OC)cc12`: “Active”; for `CCCCCCCCCCc1c(C)n(C(=O)c2ccc(Cl)cc2)c2ccc(C(=O)O)cc12`: “Active”; for `O=C(c1ccccn1)n1c2c(c3cc(S(=O)(=O)O)ccc31)CCCC2`: “Active”. The same measure, in the same setting: the same measure for `O=C(c1ccc(-c2ccccc2)cc1)n1c2c(c3cc(S(=O)(=O)O)ccc31)CCCC2`: “Active”; for `COc1ccc2c(c1)c(CCCC(=O)O)c(C)n2C(=O)c1cccs1`: “Active”. Same read-out and setting: in the case of `O=C(c1ccccn1)n1c2c(c3cc(S(=O)(=O)O)ccc31)CSCC2` it was “Active”; in that of `COc1ccc2c(c1)c(CC(=O)O)c(C)n2C(=O)c1ccc(-c2ccccc2)cc1`, “Active”; in that of `COc1ccc2c(c1)c(CCC(=O)O)c(C)n2C(=O)c1ccc(N(C)C)cc1`, “Active”.

Turning to `COc1ccc2c(c1)c(CC(=O)O)c(C)n2C(=O)c1ccc(Cl)cc1`, the Effect result is “Active”.

In the case of `COc1ccc2c(c1)c(CC(=O)O)c(C)n2C(=O)c1ccc(C)cc1`, the Effect entry is “Active”. Take `O=C(c1ccccc1)N1CCc2c(c3cc(S(=O)(=O)O)ccc3n2C(=O)c2ccc(Cl)cc2)C1`: the Effect entry is “Active”. On the same count and under the same terms, the same measure for `COc1ccc2c(c1)c(CCCC(=O)O)c(C)n2C(=O)c1ccc(N(C)C)cc1`: “Active”.

The next assay concerns T98G. Nature of the assay: Effect of compound (10 uM) on doxorubicin-induced cytotoxicity towards T98G cell line expressing multidrug resistance associated protein 1 (MRP-1); Very active. Particulars: Homo sapiens. The format is functional, cell-based.
For the molecule `COc1ccc2c(c1)c(CCC(=O)O)c(C)n2C(=O)c1ccc(Br)cc1`, the Effect result was “Active”.

On to `O=C(O)c1ccc2c(c1)c1c(n2C(=O)c2ccc(Cl)cc2)CCCC1`, for which the Effect result is “Active”.

Consider `COc1ccc2c(c1)c(CCC(=O)O)c(C)n2C(=O)c1ccc(Cl)cc1`, for which the Effect entry was “Active”.

Take `O=C(O)c1ccc2c(c1)c1c(n2C(=O)c2ccc(Cl)cc2)CCSC1`: the Effect entry was “Active”. Still for that read-out and setting: the same measure for `COc1ccc2c(c1)c(CCCC(=O)O)c(C)n2C(=O)c1ccc(Br)cc1`: “Active”.

`Cc1ccc2c(c1)c(CCC(=O)O)c(C)n2C(=O)c1ccc(Cl)cc1`: the Effect result was “Active”. On to `COc1ccc2c(c1)c(CC(=O)O)c(C)n2C(=O)c1ccc(Br)cc1`, for which the Effect entry was “Active”. Consider `Cc1ccc2c(c1)c(CCCC(=O)O)c(C)n2C(=O)c1ccc(Cl)cc1`, for which the Effect entry is “Active”. On the same count and under the same terms, in the case of `COc1ccc2c(c1)c(CCCC(=O)O)c(C)n2C(=O)c1ccc(Cl)cc1` it was “Active”.

The next assay deals with T98G. Description: Effect of compound (10 uM) on doxorubicin-induced cytotoxicity towards T98G cell line expressing multidrug resistance associated protein 1 (MRP-1); Inactive. The note with it: Homo sapiens. The format is functional, cell-based.
As for `O=C(c1ccccc1)N1CCc2c(c3cc(S(=O)(=O)O)ccc3n2C(=O)c2ccco2)C1`, the Effect result was “inactive”. With `Cc1c(Cc2ccccc2)c2cc(S(=O)(=O)O)ccc2n1C(=O)c1ccc(Cl)cc1`, the Effect result is “inactive”. For `COC(=O)CCc1c(C)n(C(=O)c2ccco2)c2ccc(S(=O)(=O)O)cc12`, the Effect result was “inactive”. As to `COc1ccc2c(c1)c(CC(=O)O)c(C)n2C(=O)c1ccccn1`, the Effect result is “inactive”.

Consider `CCc1c(C)n(C(=O)c2ccc(Cl)cc2)c2ccc(S(=O)(=O)O)cc12`, for which the Effect entry is “inactive”. As for `O=C(c1ccco1)n1c2c(c3cc(S(=O)(=O)O)ccc31)CCCC2`, the Effect result is “inactive”. The same measure, in the same setting: in the case of `CCCCCCCCCCc1c(C)n(C(=O)c2ccc(Cl)cc2)c2ccc(S(=O)(=O)O)cc12` it was “inactive”. On the same count and under the same terms, the same measure for `Cc1c(Cc2ccc(O)cc2)c2cc(S(=O)(=O)O)ccc2n1C(=O)c1ccc(-c2ccccc2)cc1`: “inactive”; for `Cc1c(CC(=O)O)c2cc(Br)ccc2n1C(=O)c1ccco1`: “inactive”; for `CCCCCCCCCCc1c(C)n(C(=O)c2ccco2)c2ccc(S(=O)(=O)O)cc12`: “inactive”. Same read-out and setting: the same measure for `Cc1c(CCCC(=O)O)c2cc(S(=O)(=O)O)ccc2n1C(=O)c1ccco1`: “inactive”. As to `COc1ccc2c(c1)c(CC(=O)O)c(C)n2C(=O)c1ccco1`, the Effect entry was “inactive”.

With `Cc1c(Cc2ccccc2)c2cc(S(=O)(=O)O)ccc2n1C(=O)c1ccc(-c2ccccc2)cc1`, the Effect result was “inactive”. As for `COC(=O)CCCc1c(C)n(C(=O)c2ccc(Cl)cc2)c2ccc(S(=O)(=O)O)cc12`, the Effect result was “inactive”. On the same count and under the same terms, the same measure for `Cc1c(CCC(=O)O)c2cc(S(=O)(=O)O)ccc2n1C(=O)c1ccco1`: “inactive”. Turning to `O=C(c1ccc(Cl)cc1)n1c2c(c3cc(S(=O)(=O)O)ccc31)CSCC2`, the Effect result was “inactive”. Regarding `O=C(c1ccc(Cl)cc1)n1c2c(c3cc(S(=O)(=O)O)ccc31)CCCC2`, the Effect result is “inactive”. On the same count and under the same terms, the same measure for `O=C(c1ccc(Cl)cc1)n1c2c(c3cc(S(=O)(=O)O)ccc31)CCCCCC2`: “inactive”; for `COc1ccc2c(c1)c(CCC(=O)O)c(C)n2C(=O)c1ccccn1`: “inactive”; for `CN1CCc2c(c3cc(S(=O)(=O)O)ccc3n2C(=O)c2ccc(-c3ccccc3)cc2)C1`: “inactive”. On to `Cc1c(CCCC(=O)O)c2cc(S(=O)(=O)O)ccc2n1C(=O)c1ccc(-c2ccccc2)cc1`, for which the Effect result is “inactive”. On the same count and under the same terms, in the case of `O=C(c1ccco1)n1c2c(c3cc(S(=O)(=O)O)ccc31)CSCC2` it was “inactive”. As for `COC(=O)CCCc1c(C)n(C(=O)c2ccco2)c2ccc(S(=O)(=O)O)cc12`, the Effect result is “inactive”.

Take `CCc1c(C)n(C(=O)c2ccco2)c2ccc(S(=O)(=O)O)cc12`: the Effect entry was “inactive”.

In a further assay the test system is T98G. Description: Effect of compound (10 uM) on doxorubicin-induced cytotoxicity towards T98G cell line expressing multidrug resistance associated protein 1 (MRP-1); Toxic. In kind it is functional, cell-based. Particulars: Homo sapiens.
As to `Cc1c(CCCC(=O)O)c2cc(S(=O)(=O)O)ccc2n1C(=O)c1ccc(Cl)cc1`, the Effect result is “Toxic”.

On to `Cc1c(Cc2ccccc2)c2cc(S(=O)(=O)O)ccc2n1C(=O)c1ccco1`, for which the Effect result is “Toxic”. The same measure, in the same setting: the same measure for `CN1CCc2c(c3cc(S(=O)(=O)O)ccc3n2C(=O)c2ccc(Cl)cc2)C1`: “Toxic”; for `CCCCCCCCCCc1c(C)n(C(=O)c2ccc(-c3ccccc3)cc2)c2ccc(S(=O)(=O)O)cc12`: “Toxic”.

Take `CCOC(=O)CCc1c(C)n(C(=O)c2cccs2)c2ccc(OC)cc12`: the Effect result was “Toxic”.

In another assay the test system is T98G. Description: Effect of compound (10 uM) on doxorubicin-induced cytotoxicity towards T98G cell line expressing multidrug resistance associated protein 1 (MRP-1). In kind it is functional, cell-based. Particulars: Homo sapiens.
Regarding `COc1ccc2c(c1)c(CCC(=O)O)c(C)n2C(=O)c1ccc(-c2ccccc2)cc1`, the Effect result is “Active”.
